Assay results published in US20120321584A1, “PROCESSES FOR PREPARING AMINE SALTS OF KMUP-3 AND USE THEREOF” (KAOHSIUNG MEDICAL UNIVERSITY, priority 2011, published 2012).

How the values were obtained:
[1] = Hemodynamic measurements in anesthetized rats (LVSP, dP/dt, MABP, HR); type: in vivo, Wistar rats
Method: Hemodynamic measurements were carried out in male Wistar rats weighting 300˜350 g, anesthetized with pentobarbital sodium (40 mg kg^−1, i.p.). In brief, polyethylene tubing (PE50) was placed in the trachea to keep the airway patent, and rats continued to breathe spontaneously. Subsequently, rats were used to record hemodynamic and cardiovascular function. Vascular catheters (PE50) were placed in the femoral arteries to measure mean arterial blood pressure (MABP) and heart rate (HR). Changes of MABP and HR caused by KMUP-3 or KMUP-3 amine salt were recorded from the femoral artery with a pressure transducer (Gould, Model P50, U.S.A.), connected with a Pressure Processor Amplifier (Gould, Model 13-4615-52, U.S.A.). A femoral vein was used for intravenous administration of KMUP-3 or KMUP-3 amine salt. A specialized transducer tip catheter was placed in the right carotid artery and advanced into the left ventricle of the heart for measurement of left ventricular pressure (LVSP) or contractility; dP/dt at 50 mm Hg, an index of cardiac contractility, was derived from the left ventricular pressure trace; post-hoc vascular resistance was calculated as mean arterial blood pressure/peripheral cardiac output (MABP/PCO). Body temperature was monitored throughout the experiment and maintained between 37 and 37.5° C. by using a heating pad.
Each dose of active drugs was administered as a 20-min infusion in a series of escalating doses dissolved in a 5% dextrose water vehicle. […] KMUP-3 HCl or KMUP-3 amine salt were infused at 0.03, 0.05, and 0.075 μg/kg/20 min for the measurement of FABP, intraperitoneally injected at 0.03, 0.05 and 0.1 mg/kg for the measurement of MABP and HR and infused by intravenous injection for 2 min at 0.5, 1.0, 3.0 mg/kg dissolved in 5% dextrose water vehicle (2 ml) for the measurement of LV systolic pressure (LVSH), ABP, dP/dt, and HR. The primary hemodynamic variables were computed using commercial software and a signal processing workstation. Animals were randomly divided into one of six treatment or vehicle groups. After the completion of the surgical protocol, animals were allowed to stabilize for 1 h, and baseline data were collected at 5-min intervals for 30 min before the treatment.

[2] = system: isolated spontaneously beating right atrium; experiment: Spontaneously beating right atrium, organ bath; type: cell-based, guinea-pig; settings: 0.1-30 μM
Method: (§1) Organ bath experiments and tissue procurement. Guinea-pigs were killed by a blow on the head. Their hearts were quickly excised and trimmed of excess tissues. The atrium was carefully removed and placed at room temperature (20˜25° C.) in a Krebs solution of the following composition (mM): NaCl 113, KCl 4.8, CaCl2 2.2, KH2PO4 1.2, MgCl2 1.2, NaHCO3 25, dextrose 11.0; bubbled with a 95% O2+5% CO2 mixture, followed by separation of right and left atrium for subsequent experiments.
Spontaneously beating right atrium was dissected from the heart and mounted in a 10 ml organ bath with one end fixed and the other end connected to a force displacement transducer (Grass, Model FT03). The frequency of contraction was measured on a separate channel by a tachometer (Coulbourn, Model S77-26) connected to a high-speed videograph (Coulbourn, AT L19-69). These experiments were carried out at 32.5° C. in Krebs solution. The atria strip was pre-stretched to a baseline tension of 0.5 g and equilibrated for 90 min in aerated (95% O2+5% CO2) Krebs solution before the experimental protocols were initiated. The atria were then allowed a 30-60 min washout period to re-stabilize. KMUP-3 or KMUP-3 amine salt (0.1, 1.0, 10, 100 μM) were then cumulatively added to the organ bath. […]

[3] = system: electrically-stimulated left atria; experiment: Electrically-stimulated beating left atrium, organ bath; type: cell-based, guinea-pig
Method: as §1
Quiescent left atria free of connective tissues were dissected and mounted in an organ bath under a resting tension of 0.5 g. Organs were bathed at 32.5° C. in aerated Krebs solution and electrically stimulated with 1 Hz at […] via two platinum electrodes placed at either side. The positive inotropic effect was measured by determining the cumulative concentration-response curves in the presence of KMUP-3 or KMUP-3 amine salt (0.1, 1.0, 10, 100 μM). To examine the possible involvement of NO and cAMP/cGMP in the action of KMUP-3 or KMUP-3 amine salt on electrically-stimulated beating atria, pre-incubated with a ROCK inhibitor Y27632 (1.0 μM), a β-adrenoceptor blocker propranolol (1.0 μM), eNOS inhibitors L-NAME (100 μM), 7-nitroindazole (100 μM) and 5-HT inhibitor ketanserin (1.0 μM) was performed for 15 min prior to the addition of KMUP-3 or KMUP-3 amine salt to measure the development of beating force and heart rate for 10 min.

[4] = system: ROCKII; experiment: ROCKII expression in aorta and pulmonary artery rings, Western blotting; type: cell-based, rat; settings: aorta and pulmonary artery (PA) ring
Method: ROCKII expression and vascular resistance. To determine whether KMUP-3's ROCKII activity increased vascular resistance, aorta and pulmonary artery (PA) ring protein was extracted followed by Western blotting to measure the expression ROCKII and eNOS.
Protein extraction and Western blotting analysis. Briefly, after incubation with test agents in an organ bath, isolated beating atrium was frozen and pulverized to a fine powder at the temperature of liquid nitrogen. Atrium powders were then homogenized in protein extraction reagent (Pierce Biotechnology, Inc., Rockford, Ill.) by sonication. The samples were sonicated 10 sec three times and centrifuged at 13,000 rpm at 4° C. for 30 min. The protein concentrations of supernatants were determined by using bovine serum albumin as the standard. The cell extracts were then boiled in a ratio of 4:1 with sample buffer (Tris 100 mM, pH 6.8; glycerol 20%, Sodium dodecyl sulfate (SDS) 4% and bromophenol blue 0.2%). Electrophoresis was performed using 10% SDS-PAGE and transferred to nitrocellulose membranes (Millipore Corp., Billerica, Mass.). […] The intensity of the bands was measured by densitometry. eNOS or phosphorylated eNOS were extracted from cell culture of neonatal myocytes, PA ring and aortic ring (2-3 mm) of rats and measured by Western blotting analysis.

[5] = system: L-type Ca2+ channels; experiment: Ca2+ entry currents in H9c2 cells, whole cell patch-clamp; type: cell-based, rat; settings: H9c2 cells, KMUP-3 1-100 μM
Text: To measure the ICa through L-type Ca^2+ channels, whole cell patch-clamp electrophysiology was used in rat heart-derived H9c2 cells as previously described. In brief, H9c2 cells were placed in a recording dish and perfused with a bath solution containing (in mM): 135 tetraethylammonium (TEA)-Cl, 1.8 CaCl2, 2 MgCl2, 10 glucose, and 10 HEPES (pH 7.4, Tris). […] Negative pressure was briefly applied to rupture the membrane and a gigaohm seal was obtained.
H9c2 cells were clamped at −80 mV with step depolarizations (300 ms) from −80 to 0 mV to evoke whole-cell ICa. Voltage clamped cells were equilibrated for 15 min prior to experimentation. Membrane currents were recorded on an Axopatch 700A amplifier (Axon Instruments, Union City, Calif.), filtered at 1 kHz using a low-pass Bessel filter, digitized at 5 kHz and stored on a computer for subsequent analysis with Clampfit 9.0. Following equilibration, ICa was monitored in the presence and absence of KMUP-3 or KMUP-3 amine salt (1, 10, 100 μM). To ascertain whether PKG or ROCK signaling was involved in the KMUP-3-induced decreases in ICa, H9c2 cells were incubated for 15 min with the combination of KMUP-3 or KMUP-3 amine salt (10 μM) and PKG antagonist KT5823 (3 μM) or ROCK inhibitor Y-27632 (50 μM). All electrical recordings were performed at room temperature.

[6] = anesthetized rats, intravenous injection 0.5-3 mg/kg within 2 min
[7] = intra-peritoneal injection 0.03-0.1 mg/kg
[8] = intravenous perfusion 0.03-0.075 μg/kg/min×20 min

For `Cn1c(=O)c2c(ncn2CCN2CCN(c3ccc([N+](=O)[O-])cc3)CC2)n(C)c1=O` [KMUP-3, 7-[2-[4-(4-nitrobenzene)piperazinyl]ethyl]-1,3-dimethylxanthine], the “LVSP (left ventricular systolic pressure)” value [1, 6] was “dose-dependently increased”, the “MABP (mean arterial blood pressure)” value [1, 6] was “dose-dependently increased” and the dP/dt [1, 6] was “dose-dependently increased”. For the same compound, the HR [1, 7] was “dose-dependently increased”, the MABP [1, 7] was “dose-dependently increased” and the HR [1, 8] was “dose-dependently increased”. For the same compound, the MABP [1, 8] was “dose-dependently increased”, the “Chronotropic effect (beating frequency)” value [2] was “decreased” and the “Inotropic effect (contraction force)” value [2] was “concentration-dependently increased”. The Left atria contractility ([3]; KMUP-3 10 μM) was “increased”, the “Potency for increasing contractility compared with milrinone” value ([3]; electrical stimulation 1 Hz, P<0.05) was “more potent than milrinone” and the “Vascular ROCKII expression” value [4] was “did not increase”. For the same compound, the “Inward currents (Ca2+ entry)” value [5] was “concentration-dependently reduced”.
